Experimental findings from ChEMBL document CHEMBL1201862, “PubChem BioAssay data set” (2004) are described below.

SMILES strings stand for the structures.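 Cells were grown in 96-well plates and exposed to each compound for 48 hours at five concentrations; endpoints were interpolated linearly between bracketing concentrations, or set to the highest concentration if not reached. Abbreviation: GI50, concentration required for 50% inhibition of growth.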 Activity calls are given as the source filed them. Rule as the data show it: active = GI50 up to about 1.1 µM and inactive = higher.

Test systems include SF-268; RPMI-8226; SK-MEL-28; OVCAR-8; HL-60; HCT-116; 786-0; IGROV-1; COLO 205; M14; SN12C; OVCAR-4; SK-MEL-2; EKVX; OVCAR-3; NCI-H226; MDA-MB-231; SF-295; UO-31; HOP-92.
What all share (assay): growth of human tumour cells (NCI), 48 h

Consider `Cc1c(/C=N/NC(=S)Nc2ccccc2Cl)c(=O)n(-c2ccccc2)n1C`, for which the GI50 is 43.8 µM (inactive) with SF-268; 48.9 µM (inactive) in the test with RPMI-8226; 58.6 µM (inactive) in the test on SK-MEL-28; 27.7 µM (inactive) in the test with OVCAR-8; 22.4 µM (inactive) in the test on HL-60; 28.6 µM (inactive) with HCT-116. The GI50 is 19.9 µM (inactive) in the test on 786-0; 40.3 µM (inactive) in the test on IGROV-1; 38.7 µM (inactive) in the test on COLO 205; 60.3 µM (inactive) in the test with M14; 44.2 µM (inactive) with SN12C; 42.4 µM (inactive) in the test on OVCAR-4. In addition, the GI50 with SK-MEL-2 was > 100 µM (inactive); in the test on EKVX, 45.5 µM (inactive); with OVCAR-3 it was 34.1 µM (inactive); with NCI-H226, 68.5 µM (inactive); with MDA-MB-231 it was 14.9 µM (inactive); with SF-295 it was 28.1 µM (inactive). In the test on UO-31, the GI50 is 15.1 µM (inactive).

As for `S=c1c2cn[nH]c2nc2scc(-c3ccc(Cl)cc3)n12`, the GI50 is 16.6 µM (inactive) with SF-268; 23.6 µM (inactive) in the test with RPMI-8226; 18.1 µM (inactive) in the test on SK-MEL-28; 16 µM (inactive) in the test on OVCAR-8; 14.2 µM (inactive) in the test on HCT-116; 14.1 µM (inactive) in the test with 786-0. In addition, the GI50 in the test on IGROV-1 was > 10 µM (inactive); with COLO 205, 23.5 µM (inactive); in the test with M14, 17 µM (inactive); in the test with SN12C, 16.6 µM (inactive); in the test on OVCAR-4, 43.1 µM (inactive); in the test on SK-MEL-2 it was 18.2 µM (inactive). In addition, the GI50 was 17.3 µM (inactive) in the test with EKVX; 20.1 µM (inactive) in the test with OVCAR-3; 17 µM (inactive) in the test with MDA-MB-231; > 10 µM (inactive) in the test on SF-295; 6.24 µM (inactive) in the test with UO-31.

`COc1cc(C)c(C2NC(=O)c3ccccc3N2)cc1C` (stereo not given): the GI50 was 0.518 µM (active) in the test on SF-268; 0.0931 µM (active) with RPMI-8226; 0.59 µM (active) in the test with SK-MEL-28; 0.942 µM (active) with OVCAR-8; 0.1 µM (active) with HL-60; 0.34 µM (active) with HCT-116. In addition, the GI50 with 786-0 was 0.417 µM (active); in the test with IGROV-1, 0.472 µM (active); with COLO 205 it was 0.313 µM (active); with M14, 0.316 µM (active); in the test with SN12C, 0.692 µM (active); with OVCAR-4, 0.342 µM (active). The GI50 in the test on SK-MEL-2 is 0.297 µM (active); in the test on EKVX, 1.12 µM (inactive); in the test with OVCAR-3, 0.127 µM (active); in the test on NCI-H226 it was 0.652 µM (active); with MDA-MB-231, 0.968 µM (active); with SF-295, 0.243 µM (active). The GI50 with UO-31 is 0.468 µM (active).

Turning to `CC(C)c1cc(C(C)C)c(S(=O)(=O)N/N=C2\CC3CCC2(C)C3(C)C)c(C(C)C)c1` (stereo not given), the GI50 in the test on SF-268 was 34.9 µM (inactive); in the test on RPMI-8226, 3.08 µM (inactive); with SK-MEL-28, 31.8 µM (inactive); with OVCAR-8, > 100 µM (inactive); in the test on HCT-116 it was 17.8 µM (inactive); in the test with 786-0, 28.4 µM (inactive). Besides, the GI50 was 27.3 µM (inactive) in the test with IGROV-1; 12.9 µM (inactive) in the test with COLO 205; 51.6 µM (inactive) in the test with M14; 12.4 µM (inactive) with SN12C; 29 µM (inactive) in the test with OVCAR-4; 18.9 µM (inactive) with SK-MEL-2. The GI50 was 11 µM (inactive) with EKVX; 33.7 µM (inactive) in the test with OVCAR-3; 16.9 µM (inactive) in the test on NCI-H226; 5.74 µM (inactive) in the test on MDA-MB-231; 10.4 µM (inactive) with SF-295; 30.4 µM (inactive) in the test with UO-31.

`CC1(C)CC[C@]2(C(=O)O)[C@H](O)C[C@]3(C)C(=CC[C@@H]4[C@@]5(C)CC[C@H](OC6OC(C(=O)O)C(O)C(O)C6O)C(C)(C)[C@@H]5CC[C@]43C)[C@@H]2C1` (stereo not given in full): the GI50 was 88.5 µM (inactive) with SF-268; > 100 µM (inactive) in the test on RPMI-8226; 20.3 µM (inactive) with HOP-92; 18.3 µM (inactive) with SK-MEL-28; 65.6 µM (inactive) in the test with OVCAR-8; 22.6 µM (inactive) with HL-60. Moreover, the GI50 in the test with HCT-116 is > 100 µM (inactive); in the test with 786-0 it was > 100 µM (inactive); with IGROV-1 it was > 100 µM (inactive); in the test on COLO 205 it was > 100 µM (inactive); in the test with M14, > 100 µM (inactive); with SN12C, 27.1 µM (inactive). Further, the GI50 in the test on OVCAR-4 was 22.3 µM (inactive); with SK-MEL-2, > 100 µM (inactive); with EKVX it was 78.3 µM (inactive); in the test with OVCAR-3 it was > 100 µM (inactive); in the test with NCI-H226, > 100 µM (inactive); with SF-295 it was 46.1 µM (inactive). Besides, the GI50 with UO-31 is 17.4 µM (inactive).

Turning to `COC(=O)C1=C(O)c2cc(OC)c(OC)c(OC)c2C(c2ccc3c(c2)OCO3)[C@@H]1C(=O)OC` (stereo not given in full), the GI50 with SF-268 was 4.28 µM (inactive); in the test with RPMI-8226, 6.62 µM (inactive); with HOP-92, > 100 µM (inactive); in the test on SK-MEL-28, 7.31 µM (inactive); in the test with OVCAR-8 it was 5.37 µM (inactive); with HL-60 it was 1.74 µM (inactive). For the same molecule, the GI50 was 4.36 µM (inactive) with HCT-116; 3.65 µM (inactive) in the test on 786-0; 5.56 µM (inactive) with IGROV-1; 2.24 µM (inactive) with COLO 205; 3.03 µM (inactive) in the test with M14; 3.68 µM (inactive) in the test on SN12C. For the same molecule, the GI50 was 6.49 µM (inactive) in the test on OVCAR-4; 7.48 µM (inactive) in the test on SK-MEL-2; 25.2 µM (inactive) in the test on EKVX; 1.99 µM (inactive) in the test on OVCAR-3; 8.97 µM (inactive) in the test on NCI-H226; 2.01 µM (inactive) in the test with SF-295. The GI50 with UO-31 is 6.08 µM (inactive).

Regarding `Cc1cccc(/C=N/NC(=S)NC(C)(C)C)n1`, the GI50 with SF-268 is 41 µM (inactive); with RPMI-8226 it was 32.9 µM (inactive); in the test with SK-MEL-28, > 100 µM (inactive); in the test with OVCAR-8, 50.8 µM (inactive); in the test on HL-60 it was 85.5 µM (inactive); in the test on HCT-116 it was 19.7 µM (inactive). Besides, the GI50 is 76.9 µM (inactive) in the test on 786-0; 66.7 µM (inactive) in the test with IGROV-1; 6.14 µM (inactive) with COLO 205; 88.7 µM (inactive) with M14; > 100 µM (inactive) in the test with SN12C; 62.7 µM (inactive) in the test on OVCAR-4. In addition, the GI50 in the test with SK-MEL-2 was > 100 µM (inactive); in the test on OVCAR-3 it was 30.8 µM (inactive); in the test with NCI-H226, 52.4 µM (inactive); in the test with MDA-MB-231, 34.6 µM (inactive); in the test with SF-295 it was > 100 µM (inactive); with UO-31 it was 62.4 µM (inactive).

For the molecule `Cc1ccc(O)cc1.Cc1cccc(O)c1.Cc1ccccc1O` [CRESOL], the GI50 in the test on SF-268, with RPMI-8226, in the test with SK-MEL-28, in the test with OVCAR-8, with HL-60 and in the test on HCT-116 was > 100 µM (inactive) in each case. Besides, the GI50 in the test with 786-0 was > 100 µM (inactive); in the test on IGROV-1, 88.9 µM (inactive); with COLO 205, > 100 µM (inactive); in the test with M14 it was > 100 µM (inactive); in the test on SN12C it was > 100 µM (inactive); with OVCAR-4, 89.3 µM (inactive). The GI50 in the test on SK-MEL-2 is > 100 µM (inactive); in the test on EKVX it was > 100 µM (inactive); with OVCAR-3, > 100 µM (inactive); in the test with NCI-H226, 85.9 µM (inactive); with MDA-MB-231, > 100 µM (inactive); in the test on SF-295, > 100 µM (inactive). Besides, in the test on UO-31, the GI50 was > 100 µM (inactive).

On to `CCN(CC)CCCC(C)NC(=O)c1ccc2c(c1)C(=O)c1ccccc1C2=O` (stereo not given), for which the GI50 in the test with SF-268 is 23.6 µM (inactive); in the test with RPMI-8226 it was 18.7 µM (inactive); in the test on HOP-92, 24.4 µM (inactive); in the test with SK-MEL-28 it was 17.9 µM (inactive); in the test with OVCAR-8, 22.3 µM (inactive); in the test on HL-60, 13.5 µM (inactive). Also, the GI50 in the test on HCT-116 is 18.6 µM (inactive); in the test with 786-0, 18.6 µM (inactive); with IGROV-1, 24.9 µM (inactive); in the test with COLO 205 it was 8.38 µM (inactive); in the test with M14, 18.1 µM (inactive); in the test with SN12C, 18.1 µM (inactive). Further, the GI50 is 15.1 µM (inactive) with OVCAR-4; 19.5 µM (inactive) with SK-MEL-2; 21.3 µM (inactive) with EKVX; 7.74 µM (inactive) with OVCAR-3; 22.3 µM (inactive) with NCI-H226; 21.4 µM (inactive) with SF-295. In addition, the GI50 in the test with UO-31 is 20.1 µM (inactive).

As to `O=C(CC(C(=O)c1ccc(F)cc1)c1ccsc1)c1cccs1` (stereo not given), the GI50 in the test on SF-268 was > 100 µM (inactive); with RPMI-8226 it was 37.6 µM (inactive); in the test on SK-MEL-28, > 100 µM (inactive); with OVCAR-8 it was > 100 µM (inactive); in the test on HL-60 it was 55.2 µM (inactive); with HCT-116, 60.5 µM (inactive). The GI50 with 786-0 was > 100 µM (inactive); in the test with IGROV-1, > 100 µM (inactive); with COLO 205 it was > 100 µM (inactive); in the test with M14, > 100 µM (inactive); in the test with SN12C, > 100 µM (inactive); in the test on OVCAR-4 it was 94.8 µM (inactive). Also, the GI50 with SK-MEL-2 is > 100 µM (inactive); in the test on EKVX, 68.9 µM (inactive); in the test on NCI-H226, 58.1 µM (inactive); in the test with MDA-MB-231, > 100 µM (inactive); in the test with SF-295, 67.6 µM (inactive); with UO-31 it was 25.2 µM (inactive).
